Test results taken from patent US20230331655A1, “HYDROXYN[…] AND METHODS OF USE THEREOF” (UNIVERSITY OF MARYLAND, BALTIMORE, priority 2020, published 2023).

Test system: Male CD-1 mice
Experiment: mouse forced swim test, immobility time 24 h after treatment
Type: in vivo
Conditions: for Holm-Šídák post-hoc comparison, group compared vehicle (p, immobility time) / minimum effective dose to reduce immobility time in the forced swim test / doses at which immobility time in the forced swim test was reduced (effective doses): 24 h after treatment; for minimum effective dose to reduce immobility time in the forced swim test / shape of dose response in the forced swim test / doses at which immobility time in the forced swim test was reduced (effective doses): male mice, i.p.; for shape of dose response in the forced swim test: tested range up to 100 mg/kg; for doses at which immobility time in the forced swim test was reduced (effective doses): relative to vehicle
Description: Animals: Male CD-1 mice (Charles Rivers Laboratories; Raleigh, NC, USA), 8-11 weeks old at the time of testing, were habituated to the University of Maryland (Baltimore, MD, USA) animal facility for at least one week prior to testing. Mice were group housed in cages of 4-5 per cage with a constant 12-hour light cycle (lights on/off at 07:00/19:00). Food and water were available ad libitum. All experiments were performed during the light phase. All studies were approved by the University of Maryland School of Medicine Animal Care and Use Committee and conducted in accordance with the National Institutes of Health Guide for the Care and Use of Laboratory Animals.
Drugs: (2R,6R)-HNK hydrochloride, (2S,6S)-HNK hydrochloride, (2R,6S)-HNK, and (2S,6R)-HNK were synthesized and characterized (molecular structures were confirmed via ^1H and ^13C NMR, the absolute and relative stereochemistry was assigned by x-ray crystallography, and the purity was determined via LC/MS) at the National Center for Advancing Translation Sciences (National Institutes of Health, Rockville, MD, USA). The synthesis and characterization of (2R,6R)-HNK hydrochloride, (2S,6S)-HNK hydrochloride, (2R,6S)-HNK, and (2S,6R)-HNK were performed as previously described in Morris et al., 2017, Org. Lett. 19:4572-4575, which is incorporated by reference herein in its entirety. (5R)-methyl-(2R,6R)-HNK was obtained from Organix Inc. (Woburn, MA, USA). (5R)-methyl-(2R,6R)-HNK can be synthesized according to the method described in Example 1. All compounds were dissolved in 20% (w/v) cyclodextrin (Sigma Aldrich, USA) in saline and administered intraperitoneally (i.p.) in a volume of 7.5 ml/kg.
Forced swim test: Compounds were tested in separate cohorts of male mice (n=10-18/group; only male mice were tested to control for sex-dependent differences in pharmacokinetics and brain levels) and all injections were performed by a experimenter. (2R,6R)-HNK, (2S,6S)-HNK, (2R,6S)-HNK, (2S,6R)-HNK were administered at the doses of 1, 3, 10, 30, and 100 mg/kg. (5R)-methyl-(2R,6R)-HNK was administered at the doses of 0.3, 1, 3, and 10 mg/kg. (2R,6S)-HNK and (2S,6R)-HNK were dosed as a free base whereas (2R,6R)-HNK and (2S,6S)-HNK, and (5R)-methyl-(2R,6R)-HNK were dosed as a hydrochloride salt. Vehicle and (2R,6R)-HNK (30 mg/kg) were included as controls in each cohort. Twenty-four h after treatment, mice were tested in the forced swim test, according to previously described methods. Injections were performed by a experimenter. Briefly, mice were placed into a clear Plexiglass cylinder (20 cm height×15 cm diameter) filled to a depth of 15 cm with water (23±1° C.) and subjected to a 6-min swim session. Swim sessions were recorded using a digital video camera. The time spent immobile (defined as passive floating with no movements other than those necessary to keep the head above water) was scored during the final 4 min of the session. Sessions were scored by a trained experimenter blind to the treatment groups.
Statistical analysis: All experiments and analyses were performed in a blinded and randomized manner. All injections were performed by a experimenter. Statistical analyses were performed using GraphPad Prism software (v8; GraphPad Software, Inc.). All statistical tests were two-tailed, and significance was assigned at p<0.05. Differences in immobility time were analyzed via one-way ANOVA followed by Holm-Šídák post-hoc comparison (with all groups compared to saline control group) when significance was reached. Significant results are indicated with asterisks in the figures (*p<0.05, **p<0.01, ***p<0.001). Data are presented as the mean±standard error of the mean (SEM).

Row | Structure (SMILES) | Holm-Šídák post-hoc comparison, group compared vehicle (p, immobility time) (1 mg/kg i.p.) | Holm-Šídák post-hoc comparison, group compared vehicle (p, immobility time) (3 mg/kg i.p.) | Holm-Šídák post-hoc comparison, group compared vehicle (p, immobility time) (10 mg/kg i.p.) | Holm-Šídák post-hoc comparison, group compared vehicle (p, immobility time) (100 mg/kg i.p.) | minimum effective dose to reduce immobility time in the forced swim test [mg/kg] | shape of dose response in the forced swim test | Holm-Šídák post-hoc comparison, group compared vehicle (p, immobility time) (30 mg/kg i.p.) | fold lower doses than (2R,6R)-HNK for antidepressant-relevant behavioral effects (forced swim test) [fold] | doses at which immobility time in the forced swim test was reduced (effective doses) [mg/kg] | Holm-Šídák post-hoc comparison, group compared vehicle (p, immobility time) (0.3 mg/kg i.p.) | Holm-Šídák post-hoc comparison, group compared vehicle (p, immobility time) (3 mg/kg i.p., hydrochloride) | Holm-Šídák post-hoc comparison, group compared vehicle (p, immobility time) (3 mg/kg i.p., listed as (5R)-Me-(2R,6R)-HNK, hydrochloride)
1 | N[C@@]1(c2ccccc2Cl)CCC[C@@H](O)C1=O [(2R,6R)-HNK, (2R,6R)-hydroxynorketamine] | p = 0.2332 | p = 0.2631 | p = 0.0428 | p = 0.0135 | 10 | did not demonstrate U-shaped dose responses |  |  |  |  |  | 
2 | N[C@@]1(c2ccccc2Cl)CCC[C@H](O)C1=O [(2R,6S)-HNK] | p = 0.0457 | p = 0.0261 | p = 0.0261 | p = 0.4950 | 1 | U-shaped dose response curves | p = 0.4950 | 10 | 1 |  |  | 
3 | N[C@]1(c2ccccc2Cl)CCC[C@H](O)C1=O [(2S,6S)-HNK, (2S,6S)-hydroxynorketamine] | p = 0.9176 | p = 0.8804 | p = 0.9176 | p = 0.0003 | 30 | did not demonstrate U-shaped dose responses | p = 0.0013 |  |  |  |  | 
4 | C[C@@H]1CC[C@@](N)(c2ccccc2Cl)C(=O)[C@@H]1O.Cl [(5R)-methyl-(2R,6R)-HNK, (2R,5R,6R)-2-amino-2-(2-chlorophenyl)-6-hydroxy-5-methylcyclohexan-1-one hydrochloride] | p = 0.0257 |  | p = 0.0026 |  | 1 |  |  |  | 1 to 10 | p = 0.8074 | 0.06 | p = 0.0671
5 | N[C@]1(c2ccccc2Cl)CCC[C@@H](O)C1=O [(2S,6R)-HNK] | p = 0.8466 | p = 0.0404 | p = 0.0404 | p = 0.8466 | 3 | U-shaped dose response curves | p = 0.8466 |  |  |  |  | 
